One assay has as its system HEK293. Nature of the assay: cells. In kind it is functional, Homo sapiens, ATCC CRL1573. The conditions noted are these: Homo sapiens.
Assay [1] deals with Pseudomonas aeruginosa. Nature of the assay: Antibacterial activity against Pseudomonas aeruginosa PAO397 [PAO1 d(mexAB-oprM) d(mexCD-oprJ) d(mexEF-oprN) d(mexJKL) d(mexXY) d(opmH)] (CO-ADD:GN_211); MIC in CAMBH media using NBS plates, by OD(600). The settings on record: ASSAY_TEST Inhibition of Bacterial Growth, detection method Absorption (OD600), MEDIA CAMHB, plate type 384well, CORNING #3640, time 18 hr. In kind it is functional.

Assay [2] concerns Staphylococcus aureus. The settings on record: ASSAY_TEST Inhibition of Bacterial Growth; detection method Absorption (OD600); MEDIA CAMHB; plate type 384well; NBS; CORNING #3640; time 18 hr.
Description: (§1) Antibacterial activity against Staphylococcus aureus MRSA ATCC 43300 (CO-ADD:GP_020); MIC in CAMBH media, using NBS plates, by OD(600)
In assay [3] the test system is Escherichia coli. The settings on record: ASSAY_TEST Inhibition of Bacterial Growth; detection method Absorption (OD600); MEDIA CAMHB; plate type 384well; NBS; CORNING #3640; time 18 hr.
Description: (§2) Antibacterial activity against Escherichia coli ATCC 25922 (CO-ADD:GN_001); MIC in CAMBH media using NBS plates, by OD(600)
Assay [4] has as its system Klebsiella pneumoniae. The conditions noted are these: ASSAY_TEST Inhibition of Bacterial Growth; detection method Absorption (OD600); MEDIA CAMHB; plate type 384well; NBS; CORNING #3640; time 18 hr.
Description: (§3) Antibacterial activity against Klebsiella pneumoniae MDR ATCC 70063 (CO-ADD:GN_003); MIC in CAMBH media using NBS plates, by OD(600)
For assay [5], the system named is Pseudomonas aeruginosa. The conditions noted are these: ASSAY_TEST Inhibition of Bacterial Growth; detection method Absorption (OD600); MEDIA CAMHB; plate type 384well; NBS; CORNING #3640; time 18 hr.
Description: (§4) Antibacterial activity against Pseudomonas aeruginosa ATCC 27853 (CO-ADD:GN_042); MIC in CAMBH media using NBS plates, by OD(600)
Assay [6] concerns Acinetobacter baumannii. The settings on record: ASSAY_TEST Inhibition of Bacterial Growth; detection method Absorption (OD600); MEDIA CAMHB; plate type 384well; NBS; CORNING #3640; time 18 hr.
Description: (§5) Antibacterial activity against Acinetobacter baumannii ATCC 19606 (CO-ADD:GN_034); MIC in CAMBH media using NBS plates, by OD600
The test system of assay [7] is Candida albicans. The settings on record: ASSAY_TEST Inhibition of Fungal Growth; detection method Absorption (OD530); plate type 384well; NBS; CORNING #3640.
Description: (§6) Antifungal activity against Candida albicans ATCC 90028 (CO-ADD:FG_001); MIC in YNB media using NBS plates, by OD630
The test system of assay [8] is Staphylococcus aureus. Description: microbe, parasite or virus in culture. The conditions noted are these: ATCC 43300, 18 h, ASSAY_TEST Inhibition of Bacterial Growth, detection method Absorption (OD600), MEDIA CAMHB, plate type 384well, NBS, CORNING #3640.
Description: as §1
The subject of assay [9] is Escherichia coli. Description: microbe, parasite or virus in culture. The conditions noted are these: ATCC 25922, 18 h, ASSAY_TEST Inhibition of Bacterial Growth, detection method Absorption (OD600), MEDIA CAMHB, plate type 384well, NBS, CORNING #3640.
Description: as §2
The test system of assay [10] is Klebsiella pneumoniae. Nature of the assay: microbe, parasite or virus in culture. The conditions noted are these: ATCC 700603, 18 h, ASSAY_TEST Inhibition of Bacterial Growth, detection method Absorption (OD600), MEDIA CAMHB, plate type 384well, NBS, CORNING #3640.
Description: as §3
The test system of assay [11] is Pseudomonas aeruginosa. Description: microbe, parasite or virus in culture. The conditions noted are these: ATCC 27853, 18 h, ASSAY_TEST Inhibition of Bacterial Growth, detection method Absorption (OD600), MEDIA CAMHB, plate type 384well, NBS, CORNING #3640.
Description: as §4
For assay [12], the system named is Acinetobacter baumannii. Description: microbe, parasite or virus in culture. The settings on record: ATCC 19606, 18 h, ASSAY_TEST Inhibition of Bacterial Growth, detection method Absorption (OD600), MEDIA CAMHB, plate type 384well, NBS, CORNING #3640.
Description: as §5
Assay [13] deals with Candida albicans. Nature of the assay: microbe, parasite or virus in culture. The conditions noted are these: ATCC 90028, ASSAY_TEST Inhibition of Fungal Growth, detection method Absorption (OD530), plate type 384well, NBS, CORNING #3640.
Description: as §6
[14] abbreviates: ATCC CRL1573, HEK293, ASSAY_TEST Inhibition of Cell Viability, detection method Resazurin, Fluorescence (ex560/em590), MEDIA DMEM with 10% FBS, plate type 384well, TC, CORNING #3712, time 18 hr, read-out: CC50.

Converted amounts (≈) assume the structure as drawn. Counter-ions that a name gives are not always drawn. A value given as a limit tells only on which side of the number the result lay.

Description for Cryptococcus neoformans: Antifungal activity against Cryptococcus neoformans H99 ATCC 208821 (CO-ADD:FG_002); MIC in YNB media using NBS plates, by Resazurin OD(600-570)

Take `CO[C@@]1(NC(=O)Cc2cccs2)C(=O)N2C(C(=O)O)=C(COC(N)=O)CS[C@@H]21` [CEFOXITIN]: the CC50 in the assay on HEK293 (setting [14]) was above 20 µM. Moreover, the MIC with Pseudomonas aeruginosa [1] is above 20 µM; against Staphylococcus aureus [2], above 20 µM; with Escherichia coli [3] it was 5 µM (≈ 2.14 µg/mL); in the assay on Klebsiella pneumoniae [4], above 20 µM; with Pseudomonas aeruginosa [5], above 20 µM; against Acinetobacter baumannii [6], above 20 µM. The MIC with Candida albicans [7] and with Cryptococcus neoformans was above 20 µM throughout.

With `CC(C)/N=c1\cc2n(-c3ccc(Cl)cc3)c3ccccc3nc-2cc1Nc1ccc(Cl)cc1` [CLOFAZIMINE], the CC50 in the assay with HEK293 (setting [14]) was above 20 µM. In addition, the MIC in the assay on Pseudomonas aeruginosa [1] is above 20 µM; with Staphylococcus aureus [2], 20 µM (≈ 9.47 µg/mL); against Escherichia coli [3] it was above 20 µM; in the assay with Klebsiella pneumoniae [4], above 20 µM; with Pseudomonas aeruginosa [5], above 20 µM; against Acinetobacter baumannii [6], above 20 µM. Besides, the MIC against Candida albicans [7] and against Cryptococcus neoformans was above 20 µM each time.

As to `O=c1[nH]cnc2c1ncn2[C@H]1CC[C@@H](CO)O1` [DIDANOSINE], the cytotoxic concentration (CC50) in the assay with HEK293 (setting [14]) was above 20 µM. For the same compound, the MIC with Pseudomonas aeruginosa [1], in the assay with Staphylococcus aureus [2], against Escherichia coli [3], against Klebsiella pneumoniae [4], against Pseudomonas aeruginosa [5] and in the assay with Acinetobacter baumannii [6] was above 20 µM each time. In addition, the MIC against Candida albicans [7] and with Cryptococcus neoformans was above 20 µM throughout.

Take `OC(Cn1cncn1)(Cn1cncn1)c1ccc(F)cc1F` [FLUCONAZOLE]: the CC50 with HEK293 (setting [14]) was above 20 µM. In addition, the MIC in the assay with Pseudomonas aeruginosa [1], in the assay on Staphylococcus aureus [2], in the assay with Escherichia coli [3], in the assay on Klebsiella pneumoniae [4], in the assay on Pseudomonas aeruginosa [5] and against Acinetobacter baumannii [6] was above 20 µM in each case. For the same compound, the MIC against Candida albicans [7] was 2.5 µM (≈ 0.766 µg/mL); against Cryptococcus neoformans, above 20 µM.

For the compound `Nc1nc(=O)[nH]cc1F` [FLUCYTOSINE], the CC50 in the assay with HEK293 (setting [14]) was above 20 µM. Further, the MIC in the assay with Pseudomonas aeruginosa [1], against Staphylococcus aureus [2], with Escherichia coli [3], in the assay with Klebsiella pneumoniae [4], against Pseudomonas aeruginosa [5] and in the assay with Acinetobacter baumannii [6] was above 20 µM throughout. In addition, the MIC in the assay on Candida albicans [7] and against Cryptococcus neoformans was 1.25 µM (≈ 0.161 µg/mL) each time.

`CCC(C)n1ncn(-c2ccc(N3CCN(c4ccc(OCC5COC(Cn6cncn6)(c6ccc(Cl)cc6Cl)O5)cc4)CC3)cc2)c1=O` (centres undefined) [ITRACONAZOLE]: the CC50 in the assay with HEK293 (setting [14]) is above 20 µM. Moreover, the MIC against Pseudomonas aeruginosa [1], with Staphylococcus aureus [2], against Escherichia coli [3], in the assay with Klebsiella pneumoniae [4], with Pseudomonas aeruginosa [5] and against Acinetobacter baumannii [6] was above 20 µM throughout. For the same compound, the MIC result was “<=0.1562 uM” with Candida albicans [7] and at most 0.156 µM in the assay on Cryptococcus neoformans.

`CC(=O)N1CCN(c2ccc(OCC3COC(Cn4ccnc4)(c4ccc(Cl)cc4Cl)O3)cc2)CC1` (centres undefined) [KETOCONAZOLE] showed a CC50 in the assay with HEK293 (ATCC CRL1573, HEK293, 18 h) above 20 µM. Besides, the MIC is 20 µM (≈ 10.6 µg/mL) against Pseudomonas aeruginosa [1]; above 20 µM with Staphylococcus aureus [2]; above 20 µM in the assay with Escherichia coli [3]; above 20 µM in the assay with Klebsiella pneumoniae [4]; above 20 µM with Pseudomonas aeruginosa [5]; above 20 µM in the assay on Acinetobacter baumannii [6]. Also, the MIC in the assay on Candida albicans [7] came out at 0.3125 µM (≈ 0.166 µg/mL); in the assay with Cryptococcus neoformans, 5 µM (≈ 2.66 µg/mL).

On to `O=C1CCC(N2C(=O)c3ccccc3C2=O)C(=O)N1` (centres undefined) [THALIDOMIDE], for which the CC50 with HEK293 (setting [14]) is above 20 µM. Further, the MIC in the assay on Pseudomonas aeruginosa [1], in the assay on Cryptococcus neoformans, with Staphylococcus aureus [8], in the assay on Escherichia coli [9], with Klebsiella pneumoniae [10] and against Pseudomonas aeruginosa [11] was above 20 µM each time. For the same compound, the MIC against Acinetobacter baumannii [12] and in the assay with Candida albicans [13] was above 20 µM throughout.

`Cn1cncc1[C@@](N)(c1ccc(Cl)cc1)c1ccc2c(c1)c(-c1cccc(Cl)c1)cc(=O)n2C` [TIPIFARNIB]: the CC50 with HEK293 (setting [14]) was 8.09 µM. Also, the MIC against Pseudomonas aeruginosa [1] is above 20 µM; with Cryptococcus neoformans it was above 20 µM; with Staphylococcus aureus [8] it was 20 µM (≈ 9.79 µg/mL); in the assay on Escherichia coli [9] it was above 20 µM; in the assay on Klebsiella pneumoniae [10] it was above 20 µM; against Pseudomonas aeruginosa [11], above 20 µM. Further, the MIC against Acinetobacter baumannii [12] and against Candida albicans [13] was above 20 µM throughout.

In the case of `NC[C@H]1O[C@H](O[C@H]2[C@H](O)[C@@H](O[C@H]3O[C@H](CO)[C@@H](O)[C@H](N)[C@H]3O)[C@H](N)C[C@@H]2N)[C@H](N)C[C@@H]1O` [TOBRAMYCIN], the CC50 in the assay on HEK293 (setting [14]) was above 20 µM. Also, the MIC in the assay with Pseudomonas aeruginosa [1] was 1.25 µM (≈ 0.584 µg/mL); in the assay on Cryptococcus neoformans, above 20 µM; in the assay on Staphylococcus aureus [8], above 20 µM; against Escherichia coli [9], 2.5 µM (≈ 1.17 µg/mL); against Klebsiella pneumoniae [10] it was above 20 µM; against Pseudomonas aeruginosa [11], 20 µM (≈ 9.35 µg/mL). For the same compound, the MIC in the assay with Acinetobacter baumannii [12] is 2.5 µM (≈ 1.17 µg/mL); in the assay with Candida albicans [13] it was above 20 µM.

As for `CC[C@@]1(O)C(=O)OCc2c1cc1n(c2=O)Cc2cc3c(CN(C)C)c(O)ccc3nc2-1` [TOPOTECAN HYDROCHLORIDE], in the assay with HEK293 (setting [14]), the 50% cytotoxic concentration (CC50) worked out at 0.218 µM. Moreover, the MIC in the assay on Pseudomonas aeruginosa [1], in the assay with Cryptococcus neoformans, with Staphylococcus aureus [8], with Escherichia coli [9], against Klebsiella pneumoniae [10] and in the assay with Pseudomonas aeruginosa [11] was above 20 µM in each case. In addition, the MIC in the assay with Acinetobacter baumannii [12] and against Candida albicans [13] was above 20 µM throughout.

As to `NC(=S)N/N=C/c1ncccc1N` [TRIAPINE], the CC50 in the assay on HEK293 (setting [14]) was 2.83 µM. The MIC was 20 µM (≈ 3.91 µg/mL) in the assay on Pseudomonas aeruginosa [1]; above 20 µM in the assay with Cryptococcus neoformans; above 20 µM in the assay on Staphylococcus aureus [8]; above 20 µM against Escherichia coli [9]; above 20 µM in the assay on Klebsiella pneumoniae [10]; above 20 µM with Pseudomonas aeruginosa [11]. The MIC in the assay with Acinetobacter baumannii [12] and in the assay on Candida albicans [13] was above 20 µM each time.

Consider `COc1cc(NCc2ccc3nc(N)nc(N)c3c2C)cc(OC)c1OC` [TRIMETREXATE], for which the half-maximal cytotoxic concentration (CC50) in the assay on HEK293 (setting [14]) is above 20 µM. Besides, the MIC in the assay with Pseudomonas aeruginosa [1] was 0.625 µM (≈ 0.231 µg/mL); against Cryptococcus neoformans, above 20 µM; in the assay with Staphylococcus aureus [8] it was 1.25 µM (≈ 0.462 µg/mL); against Escherichia coli [9], 10 µM (≈ 3.69 µg/mL); against Klebsiella pneumoniae [10], above 20 µM; with Pseudomonas aeruginosa [11], 5 µM (≈ 1.85 µg/mL). The MIC with Acinetobacter baumannii [12] and in the assay with Candida albicans [13] was above 20 µM in each case.

Regarding `Cc1onc(-c2ccccc2)c1-c1ccc(S(N)(=O)=O)cc1` [VALDECOXIB], the CC50 in the assay with HEK293 (setting [14]) was above 20 µM. Also, the MIC in the assay on Pseudomonas aeruginosa [1], against Cryptococcus neoformans, in the assay with Staphylococcus aureus [8], against Escherichia coli [9], against Klebsiella pneumoniae [10] and in the assay on Pseudomonas aeruginosa [11] was above 20 µM each time. Also, the MIC with Acinetobacter baumannii [12] and with Candida albicans [13] was above 20 µM throughout.

Turning to `O=C(/C=C\n1cnc(-c2cc(C(F)(F)F)cc(C(F)(F)F)c2)n1)NNc1ccccn1` [VERDINEXOR], the cytotoxic concentration (CC50) with HEK293 (setting [14]) is above 20 µM. Further, the MIC in the assay on Pseudomonas aeruginosa [1], against Cryptococcus neoformans, in the assay with Staphylococcus aureus [8], with Escherichia coli [9], with Klebsiella pneumoniae [10] and in the assay on Pseudomonas aeruginosa [11] was above 20 µM in each case. Moreover, the MIC against Acinetobacter baumannii [12] and against Candida albicans [13] was above 20 µM each time.

As to `CCOC(=O)N[C@@H]1CC[C@@H]2[C@@H](C1)C[C@H]1C(=O)O[C@H](C)[C@H]1[C@H]2/C=C/c1ccc(-c2cccc(F)c2)cn1` [VORAPAXAR], in the assay on HEK293 (setting [14]), the CC50 was above 20 µM. Further, the MIC against Pseudomonas aeruginosa [1], against Cryptococcus neoformans, in the assay with Staphylococcus aureus [8], in the assay with Escherichia coli [9], against Klebsiella pneumoniae [10] and against Pseudomonas aeruginosa [11] was above 20 µM throughout. For the same compound, the MIC with Acinetobacter baumannii [12] and against Candida albicans [13] was above 20 µM each time.

Values taken from ChEMBL document CHEMBL4513161, “CO-ADD screening of MMV (CH) - Pandemic Response Box” (2021).
